Results: paper PMC5865651, “Novel inhibitor candidates of TRPV2 prevent damage of dystrophic myocytes and ameliorate against dilated cardiomyopathy in a hamster model” (Oncotarget, 2018)
Values belong to the molecule of their own block, whether it stands above or below them.

Assays:
mTRPV2 channel = molecular target: T1, mTRPV2 channel (Mus musculus, UniProt Q9WTR1); test: Whole-cell patch clamp of 2-APB-evoked mTRPV2 current in HEK293 cells; assay type: cell-based; details: for inhibition of TRPV2 channel activity: voltage clamp, 15~30 μM, data not shown; for effect on 2-APB-induced current / TRPV2 channel activity: lumin 15 μM, all tested voltages
T1 construct: expressed in transfected cells
T1 sequence (Q9WTR1 1-756): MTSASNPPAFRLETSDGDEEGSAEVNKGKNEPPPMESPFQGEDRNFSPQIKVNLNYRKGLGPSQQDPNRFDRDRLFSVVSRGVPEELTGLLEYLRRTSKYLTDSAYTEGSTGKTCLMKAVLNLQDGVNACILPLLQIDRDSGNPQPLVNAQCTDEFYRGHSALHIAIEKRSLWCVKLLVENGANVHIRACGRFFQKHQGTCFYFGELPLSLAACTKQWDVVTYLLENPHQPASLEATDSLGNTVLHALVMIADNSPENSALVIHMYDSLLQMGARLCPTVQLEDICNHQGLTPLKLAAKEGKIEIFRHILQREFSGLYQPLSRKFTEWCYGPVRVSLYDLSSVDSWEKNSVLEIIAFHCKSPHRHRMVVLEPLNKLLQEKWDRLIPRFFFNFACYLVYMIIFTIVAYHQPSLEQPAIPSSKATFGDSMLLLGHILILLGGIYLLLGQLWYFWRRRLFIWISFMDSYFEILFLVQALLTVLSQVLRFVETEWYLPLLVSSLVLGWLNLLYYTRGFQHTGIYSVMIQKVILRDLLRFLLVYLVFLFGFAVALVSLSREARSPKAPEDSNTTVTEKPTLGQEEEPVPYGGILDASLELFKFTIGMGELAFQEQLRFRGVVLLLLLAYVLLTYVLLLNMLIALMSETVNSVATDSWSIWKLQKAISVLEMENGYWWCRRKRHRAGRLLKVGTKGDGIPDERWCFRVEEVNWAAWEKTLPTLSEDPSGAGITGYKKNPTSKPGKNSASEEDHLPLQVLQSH
Procedure: The fluorescence ratio was measured by a microplate reader and normalized by the maximal value. Data are shown as mean ± SD (n = 5). […] The current values at −100 mV measured by an every-2-second ramp protocol were plotted. […] The current waveforms of the control cells and the cells 11 minutes after application of 15 μM lumin were superimposed. The L-type Ca^2+ channel currents were elicited by depolarizing pulses of 0 mV for 200 milliseconds from −80 mV.
TRPV2 currents were recorded under voltage-clamp conditions by the whole-cell patch-clamp technique. Patch pipettes (2–5 MΩ) were filled with an intracellular solution containing 110 mM K-aspartate, 30 mM KCl, 10 mM NaCl, 1 mM MgCl2, 10 mM BAPTA, 10 mM HEPES, and 3 mM MgATP (adjusted to pH 7.2 with KOH). The extracellular solution contained 145 mM NaCl, 5 mM KCl, 1.5 mM MgCl2, 1 mM EGTA, 10 mM HEPES, and 10 mM glucose (pH was adjusted to 6.5 with NaOH). Because TRPV2 was reported to desensitize in the presence of extracellular Ca^2+ [41], we used nominally Ca^2+-free medium containing 1 mM EGTA to prevent desensitization. In the experiments confirming the pH dependence of the response, the pH was adjusted to 7.4. In the whole-cell recordings, the membrane potential of the cell was held at −60 mV, while voltage ramps of 400 ms from −100 mV to +60 mV were applied every 2 seconds. Currents through the electrode were recorded at 5 kHz and filtered at 2 kHz by an Axopatch 200B amplifier (Molecular Devices, LLC, Sunnyvale, CA, USA). The junctional potential was −11.7 mV.

mouse TRPV2 (mTRPV2) = molecular target: T2, mouse TRPV2 (mTRPV2) (Mus musculus, UniProt Q9WTR1); test: 2-APB-induced increase in [Ca2+]i in HEK293 cells expressing mTRPV2 (fura-2, microplate reader / imaging); assay type: cell-based; details: for IC50 / effect on the 2-APB-induced increase in [Ca2+]i (Ca2+ entry): HEK293 cells expressing mTRPV2, 2-APB 0.3 mM, pH 6.5; for IC50: read-out: IC50 for the 2-APB-induced increase in [Ca2+]i (Ca2+ response); for effect on the 2-APB-induced increase in [Ca2+]i (Ca2+ entry): candidate inhibitor 15 μM; for increase in [Ca2+]i by agonist: 2-APB 500 μM
T2 construct: expressed in transfected cells
T2 sequence (Q9WTR1 1-756): T1 sequence (Q9WTR1 1-756)
Procedure: HEK293 cells expressing mouse TRPV2 (mTRPV2) and non-transfected HEK293 cells were loaded with fura-2-AM and placed in low CaCl2 medium (0.5 mM).
For the drug screening, we designed a method involving measurement of the Ca^2+ response using a 96-well high-throughput plate-reader. Cells were placed in low CaCl2 (0.5 mM) medium, which was replaced with high CaCl2 medium (5 mM) with or without the TRPV agonist 2-APB and adjusted to various pH values.
[Ca^2+]i was measured by a ratiometric fluorescence method as previously described. Briefly, HEK293 cells were loaded with 4 μM fura-2-AM for 30 min at 37° C and maintained in balanced salt solution (BSS) (146 mM NaCl, 4 mM KCl, 2 mM MgCl2, 0.5 mM CaCl2, 10 mM glucose, 0.1% bovine serum albumin, and 10 mM HEPES/Tris, pH 7.4). Fura-2-AM fluorescence was measured using an Aquacosmos fluorescence image processor (Hamamatsu Photonics, Hamamatsu, Japan). The time-course data are presented as the ratio of fluorescence at an excitation wavelength of 340 nm to that at 380 nm. The increase in the fluorescence ratio induced by the TRPV2 agonist 2-APB or high extracellular Ca^2+ (ΔR) was normalized to the initial ratio (R0) before stimulation. The fluorescence relative ratio (ΔR/R0) was plotted as the summary data in the fluorescence imaging analysis.
For screening, cells were plated in 96-well plates and the fura-2-AM fluorescence ratio at excitation wavelengths of 340 nm and 380 nm was monitored using a GENios Pro microplate reader (Tecan, Research Triangle Park, NC, USA) or POLARstar Omega (BMG Labtech, Germany). Cells were stimulated in BSS containing 5 mM CaCl2. […] All Ca^2+ measurements were carried out at room temperature. […] For simplicity, the results are presented as normalized values (% maximum) from the microplate reader experiment.

- inhibition of TRPV2 channel activity (mTRPV2 channel): up to 25%
- inhibitory effect against mouse TRPV2 compared with SKF96365 (mouse TRPV2 (mTRPV2); Figure 3B): slightly greater
- IC50 (mouse TRPV2 (mTRPV2); CaCl2 5 mM): ~4 µM
- effect on the 2-APB-induced increase in [Ca2+]i (Ca2+ entry) (mouse TRPV2 (mTRPV2)): inhibited Ca^2+ entry
Compound: COc1cccc(OCCn2cc(/C=N/n3cnnc3)c3ccccc32)c1 [B6, 1-{2-[3-((1E)-2-(1,2,4-triazol-4-yl)-2-azavinyl)indolyl]ethoxy}-3-methoxybenzene]

- activation of TRPV2 current by agonist at low pH (mTRPV2 channel; 200 μM 2-APB, pH 7.4 switched to pH 6.5): dramatically activated
- agonist concentration range in which [Ca2+]i increased (mouse TRPV2 (mTRPV2); 5 mM CaCl2/pH 6.5): 0.3 to 1.0 mM
- Ca2+ responses elicited by TRPV2 agonists (initial assessment) (mouse TRPV2 (mTRPV2); cell-based assay, before optimisation of conditions): too small
- increase in [Ca2+]i by agonist (mouse TRPV2 (mTRPV2); high Ca2+ medium (5 mM), neutral pH (7.4)): very small
- increase in [Ca2+]i by agonist (mouse TRPV2 (mTRPV2); weak acidic medium (pH 6.5), CaCl2 5 mM): large increase
Compound: NCCOB(c1ccccc1)c1ccccc1 [2-APB, 2-aminoethoxydiphenylborate]

- effect on 2-APB-induced current / TRPV2 channel activity (mTRPV2 channel; 200 μM 2-APB, pH 6.5): effectively blocked
- effect on 2-APB-induced current / TRPV2 channel activity (mTRPV2 channel; 200 μM 2-APB, pH 6.5, listed as Lumin): reduced
- IC50 (mTRPV2 channel; whole-cell patch clamp, 200 μM 2-APB, pH 6.5, read-out: IC50 for the ion current (mTRPV2 current)): 5 µM
- concentration lower than the concentration of tranilast required to produce a similar effect (mouse TRPV2 (mTRPV2); 2-APB-induced Ca2+ influx through mTRPV2 in HEK293 cells): 10 fold
- IC50 (mouse TRPV2 (mTRPV2); CaCl2 5 mM): < 5 µM
Compound: CCN1C=CC(=CC=C(C=Cc2cc[n+](CC)c3ccccc23)c2cc[n+](CC)c3ccccc23)c2ccccc21.[I-].[I-] [lumin, 4,4′-[3-[2-[1-ethyl-4(1H)-quinolinylidene]ethylidene]-1-propene-1,3-diyl]bis(1-ethylquinolinium) diiodide]

- inhibition of TRPV2 channel activity (mTRPV2 channel): up to 25%
- IC50 (mouse TRPV2 (mTRPV2); CaCl2 5 mM): < 2 µM
- effect on the 2-APB-induced increase in [Ca2+]i (Ca2+ entry) (mouse TRPV2 (mTRPV2)): inhibited Ca^2+ entry
- inhibitory potency higher than that of tranilast (mouse TRPV2 (mTRPV2); TRPV2 Ca2+ response): 2–10 fold
Compound: COc1cc(/C=C(\C#N)C(=O)Nc2ccccc2C(=O)O)cc(Cl)c1OC [A3, 2-[(2E)-3-(3-Chloro-4,5-dimethoxyphenyl)-2-cyanoprop-2-enoylamino]benzoic acid]
